Three compounds from patent US8337828B2, “Use of thymosin alpha 1, alone or in combination with PTX3 or ganciclovir, for the treatment of cytomegalovirus infection” (priority 2006, dated 2012) can be followed below.

The subject of one assay is spleen cells. Put plainly: Cytokine levels in culture supernatants of spleen cells from MCMV-infected mice (ELISA). The format is in vivo. The conditions noted are these: BALB/c mice with MCMV infection, GCV compared with Thymosin alpha 1. An excerpt: Arrow indicates an inducible band. Lane 1, uninfected cells; lane 2, MCMV-infected; lane 3, Thymosin alpha 1 treated; lane 4, MCMV+Thymosin alpha 1 treated. (FIG. 3b) Cytokine production (pg/ml) by DC subsets treated as above. Bars indicate the standard errors. *P<0.05, cytokine production in MCMV-infected DC vs uninfected DC. **P<0.05, Thymosin alpha 1-treated vs untreated DC. (FIG. 3c) Cytokine production in mice during MCMV infection. Cytokine levels (pg/ml) in culture supernatants of spleen cells from mice with MCMV infection and treated for a week with Thymosin alpha 1 or GCV. *P<0.05, treated vs untreated mice. ND, not done.
Viral load (FIG. 4a) and cytokine production (FIG. 4b) in C57BL6, TLR4−/−, TLR9−/− and MyD88−/− mice infected with 5×10^5 PFU of MCMV and treated with 200 μg/kg Tα1 for a week. Virus titers, expressed as log 10, were quantified on MEF cells by standard plaque assay on infected tissues removed a week after infection and treatment. Cytokine (pg/ml) levels in culture supernatants of spleen cells were determined by ELISA assay. Bars indicate the standard errors. *P<0.05, Tα1-treated vs untreated mice. Results are representative of 3 independent experiments.
(§1) BALB/c or C57BL6 mice were infected with 10^5 or 5×10^5 PFU of MCMV, respectively. Virus titers, expressed as log 10, were quantified on MEF cells by standard plaque assay on lung tissues removed 7 days after the infection. Tα1 (200 μg/kg/daily for a week) and/or GCV (40 mg/kg, three times a week) were administered beginning the day of the infection. Cytokine (pg/ml) levels in culture supernatants of spleen cells (7 days) were determined by ELISA assay. Bars indicate the standard errors. *P<0.05, treated vs untreated mice. Results are representative of 3 independent experiments.
Quantification of cytokines by ELISA and ELISPOT assays. The levels of cytokines in the culture supernatants of mitogen-stimulated spleen cells (48 h stimulation with 10 μg/ml ConA) or MCMV-pulsed DC (24 h) were determined by ELISA (R&D Systems and PBL, Biomedical Lab, Milan, Italy). The detection limits (pg/ml) of the assays were <16 for IL-12 p70, <10 for IFN-., <3 for IL-10 and <10 for IFN-a. IFN-.-producing NK cells were enumerated by ELISPOT assay on purified NK (Virus Res. 2003; 98:17-467 25). Results are expressed as the mean number of cytokine-producing cells (±SE) per 10^5 cells, calculated using replicates of serial 2-fold dilutions of cells.
On the technique in general: In an ELISA, binding on a coated surface is turned into a signal by an enzyme label.

The subject of a further assay is MCMV. Put plainly: MCMV infection in mice, virus titers by standard plaque assay on tissues. The assay is classed as in vivo, BALB/c and C57BL6 mice. The method, then: BALB/c (FIG. 1a) and C57BL6 (FIG. 1b) mice were infected with 1×10^5 or 5×10^5 PFU of MCMV, respectively. Virus titers were quantified on MEF cells by standard plaque assay on tissues removed at different times (FIG. 1a) or a week after infection (FIG. 1b) and expressed as log 10(mean±standard errors, SE). Thymosin alpha 1 (200 μg/kg given for 7 or 14 days) and GCV (40 mg/kg given three times a week) were administered beginning the day of the infection. Controls received the scrambled peptide. Results are representative of 4 independent experiments. Bars indicate the standard errors. *P<0.05, viral load between treated and untreated mice.
as §1
Inbred C57BL6 and BALB/c mice were injected intraperitoneally (i.p.) with 1×10^5 (BALB/c) or 5×10^5 (C57BL6) plaque forming units (PFU) of MCMV. Virus titers were quantified on MEF cells by standard plaque assay on tissues removed a day after treatment. Treatments were as follow: Tα1 ([…]) and PTX3 (1 mg/k/ip) (SIGMA-Tau, Pomezia, Rome, Italy) were given daily for 7 consecutive days beginning the day of the infection. Controls received the scrambled peptide. All organs from uninfected animals were negative viruses. Virus titers are expressed as log 10 (mean±standard errors, SE).
Mice. Wild-type (WT) inbred C57BL6 and BALB/c mice, 8 to 12 weeks old, were purchased from Charles River Breeding Laboratories (Calco, Italy). Pairs of homozygous TLR9-(TLR9−/−), TLR4-(TLR4−/−), and MyD88-(MyD88−/−)-deficient mice (on the C57BL6 background), were bred under specific pathogen-free conditions at the breeding facilities of the University of Perugia, Perugia, Italy. Experiments were performed following protocols approved by the institutional animal committee and in accordance with European Economic Community Council Directive as well as institutional animal care and use guidelines.
Virus, infection and treatments. Stocks of Smith strain MCMV salivary gland extracts were prepared from BALB/c mice and titered in a standard plaque assay on BALB/c murine embryonic fibroblast (MEF) cells (J. Gen. Virol. 2002; 83:2983-2993). Mice were injected intraperitoneally (i.p.) with 1×10^5 (C57BL6) plaque forming units (PFU) of MCMV. Virus titers were quantified on MEF cells by standard plaque assay on tissues removed at different times. Treatments were as follows: Thymosin alpha 1 and the scrambled polypeptide (both from SciClone Pharmaceuticals, San Mateo, CA) were supplied as purified (the endotoxin levels were <0.03 pg/ml, by a standard limulus lysate assay) sterile, lyophilized, acetylated polypeptide. The sequences were as follows: Ac-Ser-Asp-Ala-Ala-Val-Asp-Thr-Ser-Ser-Glu -Ile-Thr-Thr-Lys-Asp-Leu-Lys-Glu-Lys-Lys-Glu-Val-Glu-Glu-Ala-Glu-Asn-O (Tα1) SEQ ID NO:1 and Ac-Ala-Lys-Ser-Asp-Val-Lys-Ala-Glu-Thr-Ser-Ser-Glu-Ile-Asp-Thr-Thr-Glu-Leu -Asp-Glu-Lys-Val-Glu-Val-Lys-Ala-Asn-Glu-OH (scrambled peptide) SEQ ID NO:2. The lyophilized powders were reconstituted in sterile water and 200 μg/kg/i.p. were given daily for 7 or 14 consecutive days beginning the day of the infection. Gancyclovir (GCV) (Cymevene; from Recordati, Milan, Italy) was administered at 40 mg/kg/i.p. three times a week, every other day, beginning 6 h after infection. Controls received the scrambled peptide or the diluent alone.
Plaque assay. Plaque assay was determined on cells grown to subconfluence and incubated with serially diluted virus samples for 2 h at 37° C. (10). […]

For the compound `Nc1nc(O)c2ncn(COC(CO)CO)c2n1` [GCV, Ganciclovir], the “IFN-a, IFN-. and IL-12p70 production” value with spleen cells was “comparable to those obtained with GCV”.

With “Ac-Ala-Lys-Ser-Asp-Val-Lys-Ala-Glu-Thr-Ser-Ser-Glu-Ile-Asp-Thr-Thr-Glu-Leu -Asp-Glu-Lys-Val-Glu-Val-Lys-Ala-Asn-Glu-OH (Ac-AKSDVKAETSSEIDTTELDEKVEVKANE-OH) [scrambled peptide]”, the “viral load in different visceral organs” value in the assay on MCMV (200 μg/kg for 7 days, both susceptible (BALB/c) and resistant (C57BL6) mice) is “not”.

As for “PTX3: long pentraxin protein with N-terminal domain and C-terminal domain similar to short pentraxins; from SIGMA-Tau”, the “viral titers in the lung” value with MCMV (PTX3 alone, 1 mg/k/ip daily for 7 days, BALB/c or C57BL6 mice) is “decreased the viral titers”.
